Data taken from ChEMBL document CHEMBL1201862, “PubChem BioAssay data set” (2004).
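Assay format: 96-well plates, 48-hour exposure. The concentration for 50% growth inhibition is given as GI50.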 Active and inactive are the calls of the source. Cut-off read from the data, not from the text of the source: active = GI50 up to about 1.1 µM and inactive = higher.

How the values were obtained:
Assay in all cases: NCI tumour cell line growth inhibition, 48 h
DU-145 = tested on: DU-145
LOX IMVI = tested on: LOX IMVI
A498 = tested on: A498
SNB-75 = tested on: SNB-75
A549 = tested on: A549
CAKI-1 = tested on: CAKI-1
UO-31 = tested on: UO-31
RXF 393 = tested on: RXF 393
Hs-578T = tested on: Hs-578T
HL-60 = tested on: HL-60
HCC 2998 = tested on: HCC 2998
SK-MEL-5 = tested on: SK-MEL-5
NCI-H226 = tested on: NCI-H226
MDA-MB-231 = tested on: MDA-MB-231
HCT-116 = tested on: HCT-116
CCRF-CEM = tested on: CCRF-CEM
MCF7 = tested on: MCF7
HT-29 = tested on: HT-29
TK-10 = tested on: TK-10
K562 = tested on: K562
SK-MEL-28 = tested on: SK-MEL-28
SF-539 = tested on: SF-539
SW-620 = tested on: SW-620
SNB-19 = tested on: SNB-19
SF-295 = tested on: SF-295
KM12 = tested on: KM12
OVCAR-5 = tested on: OVCAR-5
COLO 205 = tested on: COLO 205
M14 = tested on: M14
OVCAR-3 = tested on: OVCAR-3
HCT-15 = tested on: HCT-15
OVCAR-4 = tested on: OVCAR-4
OVCAR-8 = tested on: OVCAR-8
NCI-H522 = tested on: NCI-H522
UACC-257 = tested on: UACC-257
SK-MEL-2 = tested on: SK-MEL-2
HOP-92 = tested on: HOP-92
MDA-N = tested on: MDA-N
EKVX = tested on: EKVX
T47D = tested on: T47D
786-0 = tested on: 786-0
MDA-MB-435 = tested on: MDA-MB-435
NCI-H23 = tested on: NCI-H23
RPMI-8226 = tested on: RPMI-8226
SN12C = tested on: SN12C
IGROV-1 = tested on: IGROV-1
ACHN = tested on: ACHN
PC-3 = tested on: PC-3
HOP-62 = tested on: HOP-62
MOLT-4 = tested on: MOLT-4
U-251 = tested on: U-251
NCI/ADR-RES = tested on: NCI/ADR-RES
Malme-3M = tested on: Malme-3M
SF-268 = tested on: SF-268
SK-OV-3 = tested on: SK-OV-3
NCI-H460 = tested on: NCI-H460

## O=C1c2c(ccc3c2CCC3)CC12Cc1ccccc1C2
DU-145
  GI50: 17.7 µM (inactive)
LOX IMVI
  GI50: 12.7 µM (inactive)
A498
  GI50: 12.4 µM (inactive)
SNB-75
  GI50: 21.5 µM (inactive)
A549
  GI50: 22.3 µM (inactive)
CAKI-1
  GI50: 5.94 µM (inactive)
UO-31
  GI50: 5.27 µM (inactive)
RXF 393
  GI50: 11.5 µM (inactive)
Hs-578T
  GI50: 21.4 µM (inactive)
HL-60
  GI50: 10.4 µM (inactive)
HCC 2998
  GI50: 22 µM (inactive)
SK-MEL-5
  GI50: 10.9 µM (inactive)
NCI-H226
  GI50: 18 µM (inactive)
MDA-MB-231
  GI50: 22.4 µM (inactive)
HCT-116
  GI50: 5.92 µM (inactive)
CCRF-CEM
  GI50: 11.4 µM (inactive)
MCF7
  GI50: 27.5 µM (inactive)
HT-29
  GI50: 9.08 µM (inactive)
TK-10
  GI50: 21.5 µM (inactive)
K562
  GI50: 20.5 µM (inactive)
SK-MEL-28
  GI50: 25 µM (inactive)
SF-539
  GI50: 12.2 µM (inactive)
SW-620
  GI50: 8.41 µM (inactive)
SNB-19
  GI50: 33.7 µM (inactive)
SF-295
  GI50: 91.4 µM (inactive)
KM12
  GI50: 22.5 µM (inactive)
OVCAR-5
  GI50: 30 µM (inactive)
COLO 205
  GI50: 16.6 µM (inactive)
M14
  GI50: 19.8 µM (inactive)
OVCAR-3
  GI50: 17.7 µM (inactive)
HCT-15
  GI50: 15.6 µM
OVCAR-4
  GI50: 31.2 µM (inactive)
OVCAR-8
  GI50: 20.5 µM (inactive)
NCI-H522
  GI50: 11.6 µM (inactive)
UACC-257
  GI50: 22.1 µM (inactive)
SK-MEL-2
  GI50: 21.4 µM (inactive)
HOP-92
  GI50: 10.5 µM (inactive)
MDA-N
  GI50: 2.94 µM (inactive)
EKVX
  GI50: 22.5 µM (inactive)
T47D
  GI50: 28.2 µM (inactive)
786-0
  GI50: 20.7 µM (inactive)
MDA-MB-435
  GI50: 13.2 µM (inactive)
NCI-H23
  GI50: 20.8 µM (inactive)
RPMI-8226
  GI50: 7.38 µM (inactive)
SN12C
  GI50: 19.5 µM (inactive)
IGROV-1
  GI50: 29 µM (inactive)
ACHN
  GI50: 13.7 µM (inactive)
PC-3
  GI50: 25.1 µM (inactive)
HOP-62
  GI50: 20.9 µM (inactive)
MOLT-4
  GI50: 5.04 µM (inactive)
U-251
  GI50: 22.2 µM (inactive)
NCI/ADR-RES
  GI50: 28.4 µM (inactive)
Malme-3M
  GI50: 18.9 µM (inactive)
SF-268
  GI50: 33.7 µM (inactive)
SK-OV-3
  GI50: 17.9 µM (inactive)
NCI-H460
  GI50: 7.03 µM (inactive)
